Results taken from patent publication US7964598B2 (The J. David Gladstone Institutes, priority 1995, dated 2011).
“And” between values parts separate entries of the source, which are not always exact repeats. Identical values can stand only once. “Also recorded” adds a separate entry of the source.

Experiments:
YFP-apoE4-CFP = target: T1, YFP-apoE4-CFP (Homo sapiens, UniProt P02649, C130R); assay: Cell-based FRET assay, YFP-apoE4-CFP; conditions: 5-20 μM; for ratio of FRET to CFP emission in the cells expressing YFP-apoE4-CFP: intracellular; for ratio of FRET to CFP emission in media of YFP-apoE4-CFP cells: medium
T1 construct: vector signal peptide (pFLAG-CMV3) (N); FLAG (N); expressed in transfected cells
T1 sequence (P02649 19-317 C130R): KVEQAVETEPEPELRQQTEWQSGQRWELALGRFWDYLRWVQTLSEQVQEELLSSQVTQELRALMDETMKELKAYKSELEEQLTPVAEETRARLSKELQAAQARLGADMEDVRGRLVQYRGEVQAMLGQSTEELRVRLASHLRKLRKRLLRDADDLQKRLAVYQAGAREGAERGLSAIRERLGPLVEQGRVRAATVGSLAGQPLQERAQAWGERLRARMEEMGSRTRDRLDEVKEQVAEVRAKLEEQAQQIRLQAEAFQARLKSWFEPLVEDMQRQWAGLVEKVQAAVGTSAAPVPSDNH
Excerpt: (§1) Xu et al. (2004) J. Biol. Chem. 279:25511-25516. FRET—the non-radioactive transfer of photon energy from an excited fluorophore (donor) to another fluorophore (acceptor)—occurs only when the donor and acceptor are in close proximity (<100 Å). Thus, this approach can be used to measure nanometer scale distances.
(§2) Xu et al. (2004) J. Biol. Chem. 279:25511-25516. The constructs are depicted schematically in FIG. 29.
(§3) Since the emission spectrum of CFP (460-520 nm) overlaps with the excitation spectrum of YFP (480-520 nm), FLEXstation (Molecular Devices) can be used to measure FRET in living cells expressing YFP-apoE3-CFP or YFP-apoE4-CFP in a high throughput manner. […] Thus, the ratio of FRET to CFP emission in cells expressing YFP-apoE4-CFP is much higher than that in those expressing YFP-apoE3-CFP (FIG. 31). […] Since the FLEXstation can read FRET in both cells and the culture media treated without or with various small molecules, this assay allows one to know whether a small molecule affects apoE4 domain interaction only in the medium (“medium FRET”) or also inside the cell (“intracellular FRET”). In addition, after measurement of the intracellular FRET, the cells can be incubated further with MTT to determine the cytotoxicity of the compound. Thus, the cell-based FRET assay can simultaneously provide three sets of data-intracellular FRET, medium FRET, and cytotoxicity.
(§4) Quantifying FRET in Transfected Neuro-2a Cells—Stably transfected Neuro-2a cells expressing YFP-apoE3-CFP or YFP-apoE4-CFP at similar levels were selected by fluorescence activated cell sorter (FACS). YFP and CFP images of transfected cells were acquired with the Meta Detector, and their fluorescence intensities were analyzed with the mounted computer. The FRET signal was calculated as the ratio of YFP to CFP fluorescence intensity under CFP excitation. For each YFP-apoE-CFP construct, the FRET signal was measured in at least 12 cells from different fields.
(§5) Quantifying FRET in the Culture Medium—Neuro-2a cells stably expressing YFP-apoE3-CFP or YFP-apoE4-CFP and wildtype cells were grown in T175 flasks to 90% confluence and incubated with serum-free minimum essential medium containing N2 supplement for 24 h. The conditioned medium (20 ml/flask) was concentrated about 20-fold with Centriplus-YM-10 concentrators (Amicon, Bedford, Mass.), dialyzed against PBS, illuminated at the CFP excitation wavelength (430 nm), and scanned for emission spectrum. The FRET signal was calculated as the ratio of emission at 525 nm (YFP) to that at 475 nm (CFP). Conditioned medium from cells expressing apoE3-CFP or apoE4-CFP was used to determine baseline fluorescence in the absence of FRET.

YFP-apoE3-CFP = target: T2, YFP-apoE3-CFP (Homo sapiens, UniProt P02649); assay: Cell-based FRET assay, YFP-apoE3-CFP; conditions: for ratio of FRET to CFP emission in cells expressing YFP-apoE3-CFP: intracellular; for ratio of FRET to CFP emission in media of YFP-apoE3-CFP cells: medium
T2 construct: vector signal peptide (pFLAG-CMV3) (N); FLAG (N); expressed in transfected cells
T2 sequence (P02649 19-317): as the sequence (P02649 19-317 C130R) above, with R112C counted along it
Excerpt: as §1, §2, §3, §4, §5

YFP-apoE4-CFP cells = assay: MTT cytotoxicity assay; format: cell-based, mouse; conditions: 5-10 μM
Excerpt: as §3

Neuro-2a cells [1] = assay: Aβ-induced lysosomal leakage (cytosolic β-hexosaminidase); format: cell-based, mouse
Protocol: The cytosolic fraction was obtained by ultracentrifugation, and the cytosolic β-hexosaminidase activity was measured.
Quantitation of the lysosomal enzyme β-hexosaminidase activity in the cytosol indicates lysosomal leakage. […] After incubation the cells were washed and cytosolic fractions were isolated as described in Materials and Methods. The enzymatic activity of β-hexosaminidase was assayed in 20 μg of cytosolic protein for each sample.
Lysosomal leakage was quantitated by assaying cytosolic 0-hexosaminidase activity. […] Conditioned media were prepared as described above. Apoptosis was quantitated by measuring DNA fragmentation.

Neuro-2a cells [2] = assay: Aβ-induced apoptosis (DNA fragmentation assay); format: cell-based, mouse
Protocol: DNA Fragmentation Assay—DNA fragmentation of apoptotic cells was determined with Cell Death Detection ELISA kits (Roche, Indianapolis, Ind.).
FIG. 38. […] Control cells were not treated with Aβ1-42. Apoptotic cell death was measured with a DNA fragmentation assay. Values are the mean±S.D. of three separate experiments.
FIGS. 39A and 39B. […] Lysosomal leakage was quantitated by assaying cytosolic 0-hexosaminidase activity. […] Conditioned media were prepared as described above. Apoptosis was quantitated by measuring DNA fragmentation.

apoE4 = target: T3, apoE4 (Homo sapiens, UniProt P02649, C130R); assay: Emulsion binding assay for domain interaction, apoE4
T3 construct: made in house
T3 sequence (P02649 19-317 C130R): as the sequence (P02649 19-317 C130R) above
Protocol: (§6) Preparation of emulsion particles. Triolein (160 mg) and L-alpha-Phosphatidylcholine (40 mg) are combined and dried under nitrogen. After the addition of 8 mls of buffer (10 mM Tris, 100 mM KCl, 1 mM EDTA, pH 8.0), the mixture is sonicated in a water bath to obtain a heterogeneous mix of emulsion particles. The particles are harvested by ultracentrifugation (TLA 100.2 rotor, 30,000 rpm for 30 minutes) and the subsequent lipid cake is removed by tube slicing and resuspended in 100 μt 20 mM Phosphate Buffer (PB). Triolein and phospholipid content are measured and total emulsion particle concentration is determined.
(§7) Radiolabelling Freshly denatured and renatured Apolipoprotein E3 and E4 are radiolabelled using Bolton-Hunter Reagent [^125I] (ICN). Specific Activity is determined using Lowry method and Gamma 8000 counter.
(§8) Binding Affinity Assay. […] In glass tubes, 25 μg of protein (with iodinated tracer) was reduced with 1% β-mercaptoethanol. Two hundred and fifty μg of emulsion particles and 2.5 μl of compound (10 mM stock) were added and the final mixture was brought up to 250 μl with 20 mM phosphate buffer (PB). The reaction mixture was then incubated in a 37° C. water bath for 2 hours before being transferred to 1.5 ml ultracentrifuge tubes. Finally, 50 μl of 60% sucrose was mixed with the sample and 400 μl 20 mM PB was carefully layered on top. Using a TLA 100.2 rotor, the tube was spun at 30,000 rpm for 30 minutes and subsequently cut to separate the floating emulsion particle layer from the free protein at the bottom of the tube. These fractions were then combined with the respective half of the actual tube and counted using a Gamma-8000. […] Protein-only assays yielded 94.5-96.6% of protein accumulated in the bottom portion of the tube. In emulsion particle-only assays, 94% of emulsion particles accumulated in the top portion of the tube.
(§9) Preparation of Emulsion Particles and VLDL Binding Affinity Assay. VLDL-like emulsion particles were prepared using triolein (160 mg) and L-alpha-phosphatidylcholine (40 mg), as described. Dong and Weisgraber (1996) supra; and Dong et al. (1994) J. Biol. Chem. 269:22358-22365.

apoE3 [3] = target: T4, apoE3 (Homo sapiens, UniProt P02649); assay: Emulsion binding assay, apoE3; conditions: follow-up assay
T4 construct: made in house
T4 sequence (P02649 19-317): as the sequence (P02649 19-317 C130R) above, with R112C counted along it
Protocol: as §6, §7, §8, §9

apoE3 [4] = assay: Aβ production assay, B103-APP cells incubated with apoE3; format: cell-based, rat; conditions: FIG. 22
Protocol: Aβ production assay. Stable neuroblastoma B103 cell lines transfected with a wildtype hAPP cDNA construct (B 103-APP) were selected by growing them in Dulbecco's modified Eagle's medium (DMEM) containing 10% fetal calf serum (FBS) and 400 μg/ml G418. A cell line expressing APP at similar levels in mouse brains has been identified by RNase protection assay (RPA) and was used in the studies described below. To determine Aβ production, B103-APP cells were incubated with serum-free minimal essential medium (MEM) containing N2 supplements with or without apoE isoforms for 24 h at 37° C. After incubation, 50 μl of medium was collected and assayed for Aβ levels with an ELISA method. The cells were lysed, and cellular proteins were determined by the Lowry method. AP production was normalized to cellular protein.
Cell Culture. Rat neuroblastoma B103 cells stably expressing human wildtype APP (hAPP695wt) (Xu et al. ((1999) Proc. Natl. Acad. Sci. USA 96:7547-7552; Esposito, et al. (2004) J. Neurochem. 91:1260-1274) were generated in Dr. Lennart Mucke's laboratory at the Gladstone Institute of Neurological Disease and maintained in Dulbecco's modified Eagle's medium (DMEM) (GIBCO, Grand Island, N.Y.) containing 400 μg/ml G418, 10% fetal bovine serum, and 5% horse serum at 37° C. Twenty-four hours after plating into 48-well plates (1×10^5 cells per well), cells were washed twice with serum-free DMEM and cultured for another 24 h in DMEM containing 1% N-2 supplement (GIBCO) to induce differentiation. The cells were treated with either β-VLDL (25 μg/ml cholesterol), recombinant human apoE isoform-enriched β-VLDL (7.5 μg/ml apoE and 25 μg/ml cholesterol), or recombinant human apoE (7.5 μg/ml apoE) in fresh DMEM containing 1% N-2 supplement for an additional 24 h. In some experiments, RAP (25 nM or 1 μM) was added to the cells 1 h before apoE treatment.
Aβ Assay. Aβ secreted into the medium was detected with a sandwich enzyme-linked immunosorbent assay (ELISA), using mAb 266 as a capturing antibody and 3D6 as a detecting antibody, as described. Johnson-Wood et al. ((1997) Proc. Natl. Acad. Sci. USA 94:1550-1555). Aβ was quantified from a standard curve (Aβ42; Bachem, Torrance, Calif.) and normalized by total cellular protein.

B103 cells = assay: Toxicity to B103 cells; format: cell-based, rat; conditions: at the micromole level
Water solubility = format: physicochemical
[5] = follow-up assay, second E4 control
[6] = initial assay, 2.5 μl of compound (10 mM stock) in 250 μl, 37° C. 2 hours, listed as 3-butyl-1-ethyl-5-(2-(3-sulfobutyl-benzo(1,3)oxazo, potassium salt))

Row | SMILES | ratio of FRET to CFP emission in the cells expressing YFP-apoE4-CFP (YFP-apoE4-CFP) | ratio of FRET to CFP emission in media of YFP-apoE4-CFP cells (YFP-apoE4-CFP) | ratio of FRET to CFP emission in cells expressing YFP-apoE3-CFP (YFP-apoE3-CFP) | ratio of FRET to CFP emission in media of YFP-apoE3-CFP cells (YFP-apoE3-CFP) | cytotoxicity (MTT assay) (YFP-apoE4-CFP cells) | lysosomal leakage, cells with medium alone or medium containing apoE3 plus Aβ1-42 (Neuro-2a cells [1]) | apoE4 potentiation of Aβ-induced lysosomal leakage (Neuro-2a cells [1]; 5 μM, apoE4 conditioned medium, Aβ1-42 20 μM) | apoptosis, cells with medium alone or medium containing apoE3 plus Aβ1-42 (Neuro-2a cells [2]) | apoE4 potentiation of Aβ-induced apoptosis (Neuro-2a cells [2]; apoE4 conditioned medium, Aβ1-42) | E4 + cpd n = 3, % bound (apoE4; follow-up assay) [%] | E4 + cpd n = 3, % free (apoE4; follow-up assay) [%] | E4 control, % bound (apoE4; [5]) [%] | E4 control, % free (apoE4; [5]) [%] | E4 + cpd, % bound (apoE4; [6]) | E4 + cpd, % free (apoE4; [6]) | E3 + compound, % bound (apoE3 [3]) [%] | E3 + compound, % free (apoE3 [3]) [%] | effect on apoE3 (Aβ production) (apoE3 [4]) | toxicity to B103 cells (B103 cells) | water solubility (Water solubility)
1 | CCN(CC)c1ccc(/N=N\c2cc(S(=O)(=O)O)cc3cc(S(=O)(=O)O)cc(O)c23)c(O)c1 [GIND-28] | decreased significantly | decreased significantly | none of these compounds altered significantly | none of these compounds altered significantly | did not cause significant cytotoxicity | no significant effect | block; also recorded: abolish | no significant effect | block; also recorded: abolish | – | – | – | – | – | – | – | – | – | – | –
2 | CCCCN1C(=O)/C(=C/C=C2/Oc3ccccc3N2CCCCS(=O)(=O)[O-])N(CC)C1=S.[K+] [GIND-105] | – | – | – | – | did not cause significant cytotoxicity | no significant effect | – | no significant effect | – | 57 | 43 | 45 | 55 | 28% and 21% | 72% and 79% | 30 | 70 | no effect | no significant toxicity | water-soluble
3 | Cc1cc(Cl)cc2sc(-c3sc4cc(Cl)cc(C)c4c3OS(=O)(=O)O)c(OS(=O)(=O)O)c12 [GIND-111] | decreased significantly | decreased significantly | none of these compounds altered significantly | none of these compounds altered significantly | did not cause significant cytotoxicity | – | – | – | – | – | – | – | – | – | – | – | – | – | – | –
